The values that follow come from patent publication US12590062B2, “PD-1/PD-L1 inhibitors” (Gilead Sciences, Inc., priority 2017, dated 2026).

For orientation: pIC50 means the IC50 on a negative log10 scale, so that one unit is a factor of ten. Usually AC50 stands for the concentration giving half of the maximal activity seen. For orientation: pEC50 means the EC50 on a negative log10 scale, so that one unit is a factor of ten.

pEC50, pIC50: −log10 of the molar value.

The target of experiment [1] is PD-1/PD-L1 (Homo sapiens, UniProt Q9NZQ7). In words: PD-1/PD-L1 biochemical protein-protein interaction assay (ALPHA). In kind it is binding. The conditions noted are these: 0.3 nM His tagged PD-L1, 2.5 nM biotinylated Fc-PD-1, 60 minutes at 25° C., read-out: IC50 PD-L1-PD-1 Alpha IC50-mono PD-L1-fcP-D1. An outline of the steps:
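Bead proximity read-out: compound-driven loss of ALPHA signal between anti-His acceptor and streptavidin donor beads (20 μg/mL acceptor). Proteins: 0.3 nM His-PD-L1, 2.5 nM biotin-Fc-PD-1, final. 60 min, 25° C, Hepes pH 7.4 buffer. IC50 via four-parameter dose-response fit.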

Experiment [2] concerns the target T1, PD-L1 (Homo sapiens, UniProt Q9NZQ7).
T1 construct: determine if they can specifically dimerize the extracellular domains of PD-L1
In words: PD-L1/PD-L1 dimerization biochemical protein-protein interaction assay (ALPHA). Format: binding. The conditions noted are these: compound-induced PD-L1 dimerization, head prints '1 nM' (0.5 nM His-tagged PD-L1 and 0.5 nM FLAG-tagged PD-L1), read-out: AC50 PDL1 Dimer Alpha 1 nM. In a few lines:
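After 2 h at 25 °C with compound, His- and FLAG-tagged PD-L1 ECDs (each 0.5 nM final; 25 mM Hepes pH 7.4, 150 mM NaCl) were detected by sequential anti-His acceptor and anti-FLAG donor bead incubations. Dose-response curves fitted to four-parameter equation for AC50.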

Experiment [3] addresses T2, PD-1/PD-L1 interaction (Homo sapiens, UniProt Q9NZQ7).
T2 construct: expressed in transfected cells; host or cells: CHO cells (aAPC-PD-L1) co-cultured with Jurkat cells overexpressing PD-1 and an NFAT-luciferase reporter
In words: PD-1/PD-L1 NFAT reporter co-culture assay. In kind it is cell-based. To be noted: Jurkat PD-1 NFAT-luciferase cells co-cultured with aAPC-PD-L1 CHO cells, 6 hrs at 37° C.; read-out: EC50 NFAT Luciferase. An outline of the steps:
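Restoration of TCR-driven NFAT luciferase signal: 6 h, 37 °C co-culture of PD-1 Jurkat reporter cells (pre-mixed with compound) on overnight-seeded PD-L1/anti-CD3 CHO monolayer. ONE-Glo luminescence; dose-response fitted to four-parameter equation for EC50.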

T1 sequence (Q9NZQ7 19-238 limits assumed): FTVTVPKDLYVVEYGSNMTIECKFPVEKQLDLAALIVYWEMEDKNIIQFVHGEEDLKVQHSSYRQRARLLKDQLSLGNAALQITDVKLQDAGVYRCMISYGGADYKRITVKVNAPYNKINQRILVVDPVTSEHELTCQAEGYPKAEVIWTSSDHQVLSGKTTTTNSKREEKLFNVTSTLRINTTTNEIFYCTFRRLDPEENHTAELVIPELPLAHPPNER
T1 sequence (Q9NZQ7 19-238 limits assumed): as above
Chain of PD-1/PD-L1 (Q9NZQ7 19-238 limits assumed): as above
T2 sequence (Q9NZQ7 19-290): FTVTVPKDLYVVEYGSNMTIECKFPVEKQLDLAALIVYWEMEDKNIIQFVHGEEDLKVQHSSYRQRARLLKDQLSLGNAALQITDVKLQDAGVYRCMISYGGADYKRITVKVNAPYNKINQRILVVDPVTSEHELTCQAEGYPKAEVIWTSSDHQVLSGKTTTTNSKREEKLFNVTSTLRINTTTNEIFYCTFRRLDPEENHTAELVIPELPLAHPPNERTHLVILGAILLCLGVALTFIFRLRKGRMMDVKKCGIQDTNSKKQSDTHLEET

Take `COc1nc(-c2cccc(-c3cccc4c3CC[C@@H]4Oc3nc(OC)c(CN4CC(C(=O)O)C4)cc3Cl)c2Cl)ccc1CN1CC2(CCC(=O)N2)C1` [Example 713]: the pIC50 in experiment [1] was 10.19. Besides, the AC50 in experiment [2] was determined as 69.4 nM. Besides, the pEC50 in experiment [3] is 7.60.
The matching figures for `COc1nc(-c2cccc(-c3cccc4c3CC[C@@H]4Oc3nc(OC)c(CN4CC[C@H](C(=O)O)C4)cc3Cl)c2Cl)ccc1CN1CC2(CCC(=O)N2)C1` [Example 714]: 10.19, 66.3 nM and 7.59.
The matching figures for `COc1nc(O[C@H]2CCc3c(-c4cccc(-c5ccc(CNC[C@@H]6CCC(=O)N6)cc5)c4Cl)cccc32)c(Cl)cc1CN1CCCC[C@H]1C(=O)O` [Example 715]: 10.19, 7.89 nM and 7.46.
The matching figures for `COc1nc(O[C@H]2CCc3c(-c4cccc(-c5ccc(CNC[C@@H]6CCC(=O)N6)cc5)c4Cl)cccc32)c(Cl)cc1CN[C@H]1CCC[C@H]1O` [Example 716]: 9.39, 15.1 nM and 6.46.
With `COc1nc(O[C@H]2CCc3c(-c4cccc(-c5ccc(CNC[C@@H]6CCC(=O)N6)cc5)c4Cl)cccc32)c(Cl)cc1CN[C@@H]1CCC[C@@H]1O` [Example 717], in experiment [1], the pIC50 was 9.24. The AC50 in experiment [2] came to 16.2 nM. In experiment [3], the pEC50 was 6.32.
Consider `COc1nc(O[C@H]2CCc3c(-c4cccc(-c5ccc(CNC[C@@H]6CCC(=O)N6)cc5)c4Cl)cccc32)c(Cl)cc1CN1CC[C@H](O)C1` [Example 718], for which the pIC50 in experiment [1] was 9.62. For the same molecule, the AC50 in experiment [2] is 70.4 nM. In addition, in experiment [3], the pEC50 was 6.15.
For `COc1nc(O[C@H]2CCc3c(-c4cccc(-c5ccc(CNC[C@@H]6CCC(=O)N6)cc5)c4Cl)cccc32)c(Cl)cc1CN1CCC[C@H](C(=O)O)C1` [Example 719], the pIC50 in experiment [1] was 10.19. In addition, in experiment [2], the AC50 is 32.7 nM. The negative logarithm of the EC50 (pEC50) in experiment [3] is 6.96.
Regarding `COc1nc(O[C@H]2CCc3c(-c4cccc(-c5ccc(CNC[C@@H]6CCC(=O)N6)cc5)c4Cl)cccc32)c(Cl)cc1CN1CC(O)C1` [Example 720], the negative-log IC50 (pIC50) in experiment [1] was 9.58. Further, in experiment [2], the AC50 came to 94.9 nM. For the same molecule, in experiment [3], the pEC50 was 6.25.
In the same order, the values of `COc1nc(O[C@H]2CCc3c(-c4cccc(-c5ccc(CNC[C@@H]6CCC(=O)N6)cc5)c4Cl)cccc32)c(Cl)cc1CN1CC(C(=O)O)C1` [Example 721] are 10.19, 19 nM and 7.85.
In the same order, the values of `COc1nc(O[C@H]2CCc3c(-c4cccc(-c5ccc(CNC[C@@H]6CCC(=O)N6)cc5)c4Cl)cccc32)c(Cl)cc1CN1CC[C@@H](C(=O)O)C1` [Example 722] are 10.19, 16 nM and 7.33.
For the molecule `COc1nc(O[C@H]2CCc3c(-c4cccc(-c5ccc(CNC[C@@H]6CCC(=O)N6)cc5)c4Cl)cccc32)c(Cl)cc1CN1CC[C@H](C(=O)O)C1` [Example 723], the negative-log IC50 (pIC50) in experiment [1] was 10.19. The AC50 in experiment [2] is 35.1 nM. Also, the pEC50 in experiment [3] was 7.39.
In the same order, the values of `COc1nc(O[C@H]2CCc3c(-c4cccc(-c5ccc(CNC[C@@H]6CCC(=O)N6)cc5)c4Cl)cccc32)c(Cl)cc1CN1CCC[C@@H]1C(=O)O` [Example 724] are 10.19, 21.2 nM and 6.92.
In the same order, the values of `COc1nc(O[C@H]2CCc3c(-c4cccc(-c5ccc(CNC[C@@H]6CCC(=O)N6)cc5)c4Cl)cccc32)c(Cl)cc1CN1CCC[C@H]1C(=O)O` [Example 725] are 10.19, 14.3 nM and 7.06.
In the same order, the values of `COc1nc(-c2cccc(-c3cccc4c3CC[C@@H]4Oc3nc(OC)c(CN4CC5(CCC(=O)N5)C4)cc3Cl)c2Cl)ccc1CNC[C@@H]1CCC(=O)N1` [Example 726] are 9.90, 81.9 nM and 7.12.
With `COc1nc(-c2cccc(-c3cccc4c3CC[C@@H]4Oc3nc(OC)c(CN[C@@](C)(CO)C(=O)O)cc3Cl)c2Cl)ccc1CNC[C@@H]1CCC(=O)N1` [Example 727], in experiment [1], the pIC50 is 10.19. Moreover, in experiment [2], the AC50 amounted to 15.8 nM. Moreover, the pEC50 in experiment [3] was 7.57.
In the same order, the values of `COc1nc(-c2cccc(-c3cccc4c3CC[C@@H]4Oc3nc(OC)c(CNC[C@@H](O)CC(=O)O)cc3Cl)c2Cl)ccc1CNC[C@@H]1CCC(=O)N1` [Example 728] are 10.19, 15 nM and 7.60.
The matching figures for `COc1nc(O[C@H]2CCc3c(-c4cccc(-c5ccc(CNC[C@@H]6CCC(=O)N6)cc5)c4Cl)cccc32)c(Cl)cc1CN1CC2(CCC(=O)N2)C1` [Example 729]: 9.03, 49 nM and 6.19.
For the molecule `COc1nc(O[C@H]2CCc3c(-c4cccc(-c5ccc(CNC[C@@H]6CCC(=O)N6)cc5)c4Cl)cccc32)c(Cl)cc1CNC[C@@H]1CCC(=O)N1` [Example 730], in experiment [1], the negative logarithm of the IC50 (pIC50) is 9.13. Also, the AC50 in experiment [2] was 40.7 nM. Also, the pEC50 in experiment [3] was 7.00.
In the same order, the values of `COc1nc(O[C@H]2CCc3c(-c4cccc(-c5ccc(CNC[C@@H]6CCC(=O)N6)cc5)c4Cl)cccc32)c(Cl)cc1CN[C@@](C)(CO)C(=O)O` [Example 731] are 10.19, 16 nM and 7.59.
The matching figures for `COc1nc(O[C@H]2CCc3c(-c4cccc(-c5ccc(CNC[C@@H]6CCC(=O)N6)cc5)c4Cl)cccc32)c(Cl)cc1CNC[C@@H](O)CC(=O)O` [Example 732]: 10.13, 2.69 nM and 7.85.
The matching figures for `COc1nc(-c2cccc(-c3cccc4c3CC[C@@H]4Oc3nc(OC)c(CN4CC5(CCC(=O)N5)C4)cc3Cl)c2Cl)ccc1CN1CC2(CCC(=O)N2)C1` [Example 733]: 9.65, 129 nM and 6.92.
For `COc1nc(-c2cccc(-c3cccc4c3CC[C@@H]4Oc3nc(OC)c(CNC[C@@H]4CCC(=O)N4)cc3Cl)c2Cl)ccc1CNC[C@@H]1CCC(=O)N1` [Example 734], the pIC50 in experiment [1] is 9.33. In experiment [2], the AC50 was 46 nM. Also, the pEC50 in experiment [3] is 7.44.
In the same order, the values of `COc1nc(-c2cccc(-c3cccc4c3CC[C@@H]4Oc3nc(OC)c(CN4CC5(CCC(=O)N5)C4)cc3Br)c2Cl)ccc1CN1CC2(CCC(=O)N2)C1` [Example 735] are 9.46, 104 nM and 7.02.
In the same order, the values of `COc1nc(-c2cccc(-c3cccc4c3CC[C@@H]4Oc3nc(OC)c(CNC[C@@H]4CCC(=O)N4)cc3Br)c2Cl)ccc1CNC[C@@H]1CCC(=O)N1` [Example 736] are 9.82, 18.4 nM and 7.66.
The matching figures for `C[C@@](CO)(NCc1cc(Br)c(O[C@H]2CCc3c(-c4cccc(-c5ccc(C6=NCCN6)cc5)c4Cl)cccc32)nc1OCc1cncc(C#N)c1)C(=O)O` [Example 737]: 10.19, 8.23 nM and 7.10.
For the molecule `C[C@@](CO)(NCc1cc(Cl)c(O[C@H]2CCc3c(-c4cccc(-c5ccc(C6=NCCN6)cc5)c4Cl)cccc32)nc1OCc1cncc(C#N)c1)C(=O)O` [Example 738], the pIC50 in experiment [1] is 10.19. In experiment [2], the half-maximal activity concentration (AC50) worked out at 8.06 nM. Moreover, the pEC50 in experiment [3] was 7.14.
In the same order, the values of `C[C@@](CO)(NCc1ccc(O[C@H]2CCc3c(-c4cccc(-c5ccc(C6=NCCN6)cc5)c4Cl)cccc32)nc1OCc1cncc(C#N)c1)C(=O)O` [Example 740] are 10.19, 53.6 nM and 6.54.
In the same order, the values of `C[C@@](CO)(NCc1cc(Br)c(O[C@H]2CCc3c(-c4cccc(-c5ccc(CNC[C@@H]6CCC(=O)N6)cc5)c4Cl)cccc32)nc1OCc1cncc(C#N)c1)C(=O)O` [Example 741] are 10.19, 3.1 nM and 7.92.
In the same order, the values of `C[C@@](CO)(NCc1ccc(O[C@H]2CCc3c(-c4cccc(-c5ccc(CNC[C@@H]6CCC(=O)N6)cc5)c4Cl)cccc32)nc1OCc1cncc(C#N)c1)C(=O)O` [Example 742] are 10.19, 42 nM and 7.49.
`COC(=O)[C@@](C)(CO)NCc1cc(Br)c(O[C@H]2CCc3c(-c4cccc(-c5ccc(CNC[C@@H]6CCC(=O)N6)c(OC)n5)c4Cl)cccc32)nc1OCc1cncc(C#N)c1` [Example 743]: the pIC50 in experiment [1] is 9.51. Also, the AC50 in experiment [2] came out at 82.2 nM. In addition, the pEC50 in experiment [3] was 7.30.
Turning to `COc1nc(-c2cccc(-c3cccc4c3CC[C@@H]4Oc3nc(OCc4cncc(C#N)c4)c(CN[C@@](C)(CO)C(=O)O)cc3Br)c2Cl)ccc1C1=NCCN1` [Example 744], in experiment [1], the pIC50 was 10.19. For the same molecule, in experiment [2], the AC50 is 9.53 nM. Also, the negative logarithm of the EC50 (pEC50) in experiment [3] is 7.36.
